Drawing on patent US20220324833A1, “PROCESS FOR PREPARATION OF 2-HYDROXY-6-((2-(1-ISOPROPYL-1H-PYRAZOL-5-YL)PYRIDIN-3-YL)METHOXY)BENZALDEHYDE” (Global Blood Therapeutics, Inc., priority 2020, published 2022), this text covers approximate solubility for one molecule.

A short description of this data set: Approximate solubility at ambient temperature. It is filed as physicochemical. The procedure: Approximate solubility values were measured for the as-received material at ambient temperature. […] The approximate solubility values were considered in the design of form screen experiments.

Each structure is given as a SMILES string.

As to `CC(C)n1nccc1-c1ncccc1CO` [compound (3)], the approximate solubility entry is “Limited to intermediate solubility” (MTBE, toluene, water, and select solvent mixtures); “low solubility” (heptane); “high solubility” (most of the organic solvents tested).
